Consider eleven compounds from US7531545B2, “2-amino-3,4-dihydro-pyrido[3,4-d]pyrimidine derivatives useful as inhibitors of β-secretase (BACE)” (Janssen Pharmaceutica, N.V., priority 2005, dated 2009).

The test concerns the target T1, β-secretase (BACE) (Homo sapiens, UniProt P56817).
T1 construct: purchased Panvera
Nature of the test: BACE FS1 Assay (% Inhibition and Ki). It is filed as biochemical. The following applies: FS1 substrate; for inhibition at 0.3 µM: read-out: % Inhibition (FS) @ 0.3 μM; for inhibition at 1 µM: read-out: % Inhibition (FS) @ 1 μM; for inhibition at 3 µM: read-out: % Inhibition (FS) @ 3 μM. As for the experimental part: BACE FS1 Assay (% Inhibition and Ki)
The following reagents were used in this assay: sodium acetate, PEG8000 (Sigma), DMSO, HEPES, FS1 substrate [R(AedensE)[…]-(DabcylK)R], β-secretase (BACE) (Panvera), and 96-well plate (HE microplate, Molecular Devices).
The following assay buffers were prepared and used in this assay: (1) enzyme assay buffer (0.05 M sodium acetate, pH5, 0.1% PEG8000 (w/v)), (2) substrate assay buffer (0.05 M sodium acetate, pH5), and (3) compound vehicle (30% DMSO in 50 mM HEPES, pH 7.4).
The FS1-substrate stock solution was prepared in DMSO as a 10 mg/mL solution. The FS1-substrate working solution was prepared by diluting the 10 mg/mL stock solution with substrate assay buffer to a final concentration of 300 μg/mL. The β-secretase (BACE) working solution was prepared by diluting a 0.83 mg/mL BACE stock solution with enzyme assay buffer to a final concentration of 4 μg/mL.
Test compounds were dissolved in DMSO to 10 mM. Compounds were further diluted in vehicle to various concentrations in the range of 405 μM to 4.05 μM (13.5× final compound concentration in screening plate).
The screening procedure for this assay was as follows: 15 μL of BACE working solution was pipetted into each well of a 96-well plate. To each well was then pipetted 2 μL of test compound at the selected concentration. Test compound and BACE were then mixed with a pipettor and incubated for 20 min at room temperature. To each well was then added 10 μL of the FS1 substrate working solution. The plates were then incubated for 1 hour at room temperature. The fluorescence for each well was then measured on an LJL analyst (Ex 360 nm/Em 530 nm).
The procedure for the blank was as follows. 15 μL of assay buffer was pipetted into each well to be used as a blank control. To each well was then added 2 μL of vehicle and […] of FS1-substrate working solution. The plates were then incubated for 1 hour at room temperature. The fluorescence was measured on an LJL analyst (Ex 360 nm/Em 530 nm).
The procedure for the positive control was as follows: 15 μL of BACE working solution was pipetted into each well to be used as a positive control. To each well was then pipetted 2 μL of vehicle. Vehicle and BACE were then mixed with a pipettor and incubated for 20 min at room temperature. To each well was then added 10 μL of the FS1 substrate working solution. The plates were then incubated for 1 hour at room temperature. The fluorescence (F1) was then measured on an LJL analyst (Ex 360 nm/Em 530 nm).
For test compounds, % inhibition was determined at each concentration as follows:
% Inhibition values of less than 30% were indistinguishable from control are listed as ≦30% in Table 18, below.
For test compounds, measured at multiple concentrations, the measured T0 and T60 values were used to calculate an IC50 value using Graphpad Software (or PIR). Ki inhibition was determined as follows: For each compound concentration and positive control, rate of cleavage of substrate (Vi, where i=compound concentration in μM) was determined as Δ Fluorescence/Δ time (min). Cleavage rates (Vi) were plotted as a function of inhibitor concentration in μM [I]. […]

The inhibition is the change of the read-out against control, counted positive when it falls. Broadly, the Ki is the dissociation constant of the complex between target and ligand, obtained from inhibition or displacement. A low value points to a stronger hold on the target.

T1 sequence (P56817 46-501): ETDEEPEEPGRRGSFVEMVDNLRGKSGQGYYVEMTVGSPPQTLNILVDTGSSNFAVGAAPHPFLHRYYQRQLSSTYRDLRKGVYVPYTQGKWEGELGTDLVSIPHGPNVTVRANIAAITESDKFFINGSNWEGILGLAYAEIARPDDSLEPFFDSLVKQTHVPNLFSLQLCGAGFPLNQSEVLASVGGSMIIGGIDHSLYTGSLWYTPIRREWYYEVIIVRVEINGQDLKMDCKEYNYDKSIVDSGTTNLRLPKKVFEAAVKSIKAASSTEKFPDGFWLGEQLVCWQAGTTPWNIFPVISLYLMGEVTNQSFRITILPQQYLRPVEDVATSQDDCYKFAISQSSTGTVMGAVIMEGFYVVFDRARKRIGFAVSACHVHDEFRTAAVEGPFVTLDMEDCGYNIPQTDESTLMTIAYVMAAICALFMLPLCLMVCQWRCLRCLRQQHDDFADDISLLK

As for `CC(C)[C@H](CCC(=O)N[C@H](CO)C(=O)O)N1Cc2cc(Oc3ccccc3)ncc2N=C1N` [Compound 30], affinity was put at a Ki of 97 nM. Besides, the inhibition at 0.3 µM (0.3 μM test compound) was 91%. Besides, where the note is “1 μM test compound”, the inhibition at 1 µM came out at 106%. For the same compound, the inhibition at 3 µM (3 μM test compound) came out at 117%.
In the same order, the values of `CC(C)[C@H](CCC(=O)N(CCO)C1CCCCC1)N1Cc2cc(Oc3ccccc3)ncc2N=C1N` [Compound 31] are 8 nM, 129%, 125% and 125%.
`COC(=O)[C@H]1CC[C@@H](N(C)C(=O)CC[C@@H](C2CCOCC2)N2Cc3cc(Oc4ccccc4)ncc3N=C2N)CC1` [Compound 32]: the Ki was 20 nM. Moreover, the inhibition at 0.3 µM (0.3 μM test compound) came to 79%. Further, the inhibition at 1 µM (1 μM test compound) worked out at 101%. In addition, the inhibition at 3 µM (3 μM test compound) was 109%.
In the same order, the values of `CN(C(=O)CC[C@@H](C1CCOCC1)N1Cc2cc(Oc3ccccc3)ncc2N=C1N)[C@H]1CC[C@@H](C(=O)O)CC1` [Compound 33] are 5 nM, 114%, 112% and 113%.
`COC(=O)[C@H]1CC[C@H](N(C)C(=O)CC[C@@H](C2CCOCC2)N2Cc3cc(Oc4ccccc4)ncc3N=C2N)CC1` [Compound 34] had a Ki of 32 nM. Moreover, the inhibition at 0.3 µM (0.3 μM test compound) is 96%. Where the note is “1 μM test compound”, the inhibition at 1 µM was found to be 106%. For the setting “3 μM test compound”, the inhibition at 3 µM amounted to 115%.
As for `CC(C)[C@H](CO)NC(=O)CC[C@@H](C(C)C)N1Cc2cc(Oc3ccccc3)ncc2N=C1N` [Compound 36], the Ki was found to be 21 nM. For the same compound, for the setting “0.3 μM test compound, 0.3 µM”, the “% Inhibition (FS) @ 0.3 μM” value came out at 114%. Also, the “% Inhibition (FS) @ 1 μM” value (1 μM test compound, 1 µM) is reported as 112%. The “% Inhibition (FS) @ 3 μM” value (3 μM test compound, 3 µM) turned out to be 114%.
As to `NC1=Nc2cnc(Oc3ccccc3)cc2CN1[C@@H](CCC(=O)N(CCO)[C@H]1CC[C@@H](C(=O)O)CC1)C1CCCCC1` [Compound 37], affinity was put at a Ki of 12 nM. In addition, the inhibition at 0.3 µM (0.3 μM test compound) was determined as 112%. The inhibition at 1 µM (1 μM test compound) came out at 111%. The inhibition at 3 µM (3 μM test compound) worked out at 114%.
In the same order, the values of `NC1=Nc2cnc(Oc3ccccc3)cc2CN1[C@@H](CCC(=O)N(CCO)[C@H]1CC[C@@H](C(=O)O)CC1)C1CCOCC1` [Compound 38, 4-[[4-(2-Amino-6-phenoxy-4H-pyrido[3,4-d]pyrimidin-3-yl)-4-(S)-(tetrahydro-pyran-4-yl)-butyryl]-(2-hydroxy-ethyl)-amino]-cyclohexanecarboxylic acid] are 9 nM, 112%, 110% and 115%.
In the same order, the values of `NC1=Nc2cnc(Oc3ccccc3)cc2CN1[C@@H](CCC(=O)N(CCOCc1ccccc1)[C@H]1CC[C@@H](C(=O)O)CC1)C1CCOCC1` [Compound 39, 4-[[4-(2-Amino-6-phenoxy-4H-pyrido[3,4-d]pyrimidin-3-yl)-4-(S)-(tetrahydro-pyran-4-yl)-butyryl]-(2-benzyloxy-ethyl)-amino]-cyclohexanecarboxylic acid] are 13 nM, 112%, 110% and 115%.
In the same order, the values of `CC(C)[C@H](CCC(=O)N(C)[C@H]1CC[C@@H](C(=O)O)CC1)N1Cc2cc(Oc3ccccc3)ncc2N=C1N` [Compound 43] are 16 nM, 110%, 107% and 115%.
On to `CN(CCCCC(=O)O)C(=O)CC[C@@H](C1CCCCC1)N1Cc2cc(Oc3ccccc3)ncc2N=C1N` [Compound 44], for which the Ki is 148 nM. Where the note is “0.3 μM test compound”, the inhibition at 0.3 µM was found to be 61%. Besides, for the setting “1 μM test compound”, the inhibition at 1 µM came to 88%. For the same compound, the inhibition at 3 µM (3 μM test compound) was found to be 105%.
